This passage reports IC50 results from ChEMBL document CHEMBL2429811, “Novel selective and potent inhibitors of malaria parasite dihydroorotate dehydrogenase: discovery and optimization of dihydrothiophenone derivatives” (J Med Chem, 2013).

Where only a bound is given, the exact number is not on record here.

Assay [1] has as its target Dihydroorotate dehydrogenase (quinone), mitochondrial (Homo sapiens, UniProt Q02127). The assay is described as follows: Inhibition of N-terminal His10-tagged human DHODH (Met30 to Arg396) expressed in Escherichia coli BL21 (DE3) using dihydroorotate as substrate measured every 30 secs for 6 mins by DCIP dye-based assay.
Assay [2] has as its system Plasmodium falciparum. The assay is described as follows: microbe, parasite or virus in culture. The settings on record: Dd2, 72 h.
Description: Antiplasmodial activity against chloroquine-resistant Plasmodium falciparum Dd2 infected in erythrocytes assessed as parasite growth inhibition after 72 hrs by SYBR green 1 dye-based fluorometric analysis
The test system of assay [3] is Plasmodium falciparum. Description: microbe, parasite or virus in culture. The settings on record: 3D7, 72 h.
Description: Antiplasmodial activity against chloroquine-sensitive Plasmodium falciparum 3D7 infected in erythrocytes assessed as parasite growth inhibition after 72 hrs by SYBR green 1 dye-based fluorometric analysis
Assay [4] has as its target T1, Dihydroorotate dehydrogenase (Plasmodium falciparum, UniProt Q54A96).
T1 sequence (Q54A96 whole entry): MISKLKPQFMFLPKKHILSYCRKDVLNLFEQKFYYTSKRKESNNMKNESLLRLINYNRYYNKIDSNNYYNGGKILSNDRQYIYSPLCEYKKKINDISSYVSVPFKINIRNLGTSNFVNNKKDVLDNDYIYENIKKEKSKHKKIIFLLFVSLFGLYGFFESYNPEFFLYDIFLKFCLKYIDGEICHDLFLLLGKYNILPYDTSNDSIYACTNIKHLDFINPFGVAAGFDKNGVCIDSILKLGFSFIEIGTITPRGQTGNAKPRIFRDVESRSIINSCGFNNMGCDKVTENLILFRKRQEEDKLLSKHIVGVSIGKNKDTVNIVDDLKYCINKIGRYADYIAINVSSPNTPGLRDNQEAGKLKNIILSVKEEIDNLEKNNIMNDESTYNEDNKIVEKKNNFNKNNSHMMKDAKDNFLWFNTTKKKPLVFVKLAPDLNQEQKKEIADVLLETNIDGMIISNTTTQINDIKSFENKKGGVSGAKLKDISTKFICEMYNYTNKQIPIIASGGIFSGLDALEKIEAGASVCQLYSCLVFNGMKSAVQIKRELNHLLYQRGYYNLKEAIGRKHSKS
The assay is described as follows: Inhibition of Plasmodium falciparum DHODH (Phe158 to Ser569) expressed in Escherichia coli BL21 using dihydroorotate as substrate measured every 30 secs for 6 mins by DCIP dye-based assay.

Dihydroorotate dehydrogenase (quinone), mitochondrial, sequence (Q02127 whole entry): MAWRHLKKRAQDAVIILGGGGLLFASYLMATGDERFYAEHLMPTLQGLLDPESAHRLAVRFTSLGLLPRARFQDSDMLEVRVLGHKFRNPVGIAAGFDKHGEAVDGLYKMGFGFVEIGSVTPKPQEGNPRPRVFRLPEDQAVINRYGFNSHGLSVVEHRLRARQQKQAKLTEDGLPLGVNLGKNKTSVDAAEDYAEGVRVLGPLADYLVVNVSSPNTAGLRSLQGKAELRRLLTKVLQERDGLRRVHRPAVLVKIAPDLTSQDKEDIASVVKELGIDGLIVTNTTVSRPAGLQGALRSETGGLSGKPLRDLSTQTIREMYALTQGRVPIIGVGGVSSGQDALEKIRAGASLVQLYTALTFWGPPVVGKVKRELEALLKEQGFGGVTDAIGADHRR

Usually IC50 stands for the concentration that inhibits the measured activity by half. Consider `CCOC(=O)C1=C(Nc2ccccc2)SCC1=O`, for which the IC50 in assay [1] was over 50000 nM; in the assay with Plasmodium falciparum [2], 6560 nM; in the assay on Plasmodium falciparum [3], 5900 nM; in assay [4] it was over 50000 nM.
`CCCCOC(=O)C1=C(Nc2ccc(C)c(C)c2)SCC1=O`: the IC50 is over 50000 nM in assay [1], 889 nM with Plasmodium falciparum [2], 745 nM in the assay on Plasmodium falciparum [3] and 2350 nM in assay [4].
Taken in the same sequence, the figures for `Cc1ccc(NC2=C(C(=O)OCC3CC3)C(=O)CS2)cc1C` were over 50000 nM, 2630 nM, 3530 nM and 4160 nM.
On the same counts, the results for `Cc1ccc(NC2=C(C(N)=O)C(=O)CS2)cc1C` are over 50000 nM, over 20000 nM, over 20000 nM and over 50000 nM.
As to `CCNC(=O)C1=C(Nc2ccc(C)c(C)c2)SCC1=O`, the IC50 is over 50000 nM in assay [1], 6260 nM in the assay with Plasmodium falciparum [2], 8470 nM in the assay on Plasmodium falciparum [3] and 39500 nM in assay [4].
With `CCCNC(=O)C1=C(Nc2ccc(C)c(C)c2)SCC1=O`, the IC50 in assay [1] was 6300 nM; in the assay on Plasmodium falciparum [2], 3930 nM; in the assay on Plasmodium falciparum [3], 3170 nM; in assay [4] it was 4630 nM.
On the same counts, the results for `CCCCNC(=O)C1=C(Nc2ccc(C)c(C)c2)SCC1=O` are 4420 nM, 2780 nM, 2700 nM and 5730 nM.
For the compound `Cc1ccc(NC2=C(C(=O)NC3CC3)C(=O)CS2)cc1C`, the IC50 in assay [1] is 4110 nM; with Plasmodium falciparum [2] it was 5530 nM; in the assay on Plasmodium falciparum [3], 6620 nM; in assay [4] it was 19100 nM.
Taken in the same sequence, the figures for `Cc1ccc(NC2=C(C(=O)NCC3CC3)C(=O)CS2)cc1C` were 1840 nM, 3500 nM, 3340 nM and 3660 nM.
As for `COC(=O)C1=C(Nc2ccc3ccccc3c2)SCC1=O`, the concentration for half-maximal inhibition (IC50) in assay [1] is over 50000 nM; in the assay with Plasmodium falciparum [2], 400 nM; with Plasmodium falciparum [3], 245 nM; in assay [4], 33 nM.
On the same counts, the results for `CCCOC(=O)C1=C(Nc2ccc3ccccc3c2)SCC1=O` are over 50000 nM, 1660 nM, 890 nM and 951 nM.
For `CCCCOC(=O)C1=C(Nc2ccc3ccccc3c2)SCC1=O`, the IC50 was over 50000 nM in assay [1], 5230 nM in the assay with Plasmodium falciparum [2], 8380 nM with Plasmodium falciparum [3] and 35600 nM in assay [4].
With `CCNC(=O)C1=C(Nc2ccc3ccccc3c2)SCC1=O`, the IC50 is over 50000 nM in assay [1], 8490 nM in the assay with Plasmodium falciparum [2], 11100 nM in the assay on Plasmodium falciparum [3] and 12100 nM in assay [4].
Taken in the same sequence, the figures for `CCCNC(=O)C1=C(Nc2ccc3ccccc3c2)SCC1=O` were over 50000 nM, 3550 nM, 3480 nM and over 50000 nM.
Consider `CCCCNC(=O)C1=C(Nc2ccc3ccccc3c2)SCC1=O`, for which the IC50 in assay [1] was over 50000 nM; with Plasmodium falciparum [2] it was 4030 nM; in the assay on Plasmodium falciparum [3], 5830 nM; in assay [4], over 50000 nM.
Turning to `O=C1CSC(Nc2ccc3ccccc3c2)=C1C(=O)NC1CC1`, the IC50 in assay [1] was over 50000 nM; with Plasmodium falciparum [2], 7940 nM; in the assay on Plasmodium falciparum [3], 10200 nM; in assay [4], 13200 nM.
`O=C1CSC(Nc2ccc3ccccc3c2)=C1C(=O)NCC1CC1`: the IC50 was over 50000 nM in assay [1], over 20000 nM in the assay with Plasmodium falciparum [2], 12400 nM in the assay on Plasmodium falciparum [3] and over 50000 nM in assay [4].
Turning to `CCOC(=O)C1=C(Nc2ccc(C)c(C)c2)OCC1=O`, the IC50 in assay [1] is over 50000 nM; in the assay with Plasmodium falciparum [2], 486 nM; in the assay with Plasmodium falciparum [3] it was 372 nM; in assay [4], 698 nM.
Taken in the same sequence, the figures for `CCOC(=O)C1=C(Nc2cnc3ccccc3c2)OCC1=O` were over 50000 nM, 517 nM, 492 nM and 79 nM.
On the same counts, the results for `CCOC(=O)C1=C(Nc2ccc3c(c2)CCCC3)OCC1=O` are over 50000 nM, 76 nM, 57 nM and 18 nM.
For `CCOC(=O)C1=C(Nc2ccc3c(c2)CCC3)OCC1=O`, the IC50 is over 50000 nM in assay [1], 373 nM with Plasmodium falciparum [2], 495 nM in the assay on Plasmodium falciparum [3] and 65 nM in assay [4].
Regarding `CCOC(=O)C1=C(Nc2ccc(S(F)(F)(F)(F)F)cc2)OCC1=O`, the IC50 is over 50000 nM in assay [1], 1060 nM in the assay on Plasmodium falciparum [2], 680 nM with Plasmodium falciparum [3] and 168 nM in assay [4].
On to `CCOC(=O)C1=C(Nc2ccc(C(F)(F)F)cc2)OCC1=O`, for which the IC50 in assay [1] is over 50000 nM; with Plasmodium falciparum [2], 867 nM; with Plasmodium falciparum [3] it was 607 nM; in assay [4], 142 nM.
Turning to `CCOC(=O)C1=C(Nc2ccc(C(F)(F)F)cc2)SCC1=O`, the IC50 is over 50000 nM in assay [1], 1040 nM with Plasmodium falciparum [2], 946 nM in the assay with Plasmodium falciparum [3] and 367 nM in assay [4].
Turning to `CCOC(=O)C1=C(Nc2ccc(S(F)(F)(F)(F)F)cc2)SCC1=O`, the concentration for half-maximal inhibition (IC50) was over 50000 nM in assay [1], 697 nM in the assay on Plasmodium falciparum [2], 307 nM in the assay with Plasmodium falciparum [3] and 559 nM in assay [4].
Taken in the same sequence, the figures for `CCOC(=O)C1=C(Nc2ccc(C(C)(C)C)cc2)SCC1=O` were over 50000 nM, 767 nM, 1520 nM and 227 nM.
Take `CCOC(=O)C1=C(Nc2ccc(Cl)c(C(F)(F)F)c2)SCC1=O`: the IC50 in assay [1] was over 50000 nM; in the assay with Plasmodium falciparum [2], 3150 nM; in the assay on Plasmodium falciparum [3], 2190 nM; in assay [4], 751 nM.
As for `CCOC(=O)C1=C(Nc2ccc(Br)c(C(F)(F)F)c2)SCC1=O`, the IC50 in assay [1] is over 50000 nM; in the assay with Plasmodium falciparum [2], 5540 nM; with Plasmodium falciparum [3] it was 5610 nM; in assay [4], 1620 nM.
Taken in the same sequence, the figures for `CCOC(=O)C1=C(Nc2cccc(C(F)(F)F)c2)SCC1=O` were over 50000 nM, 13600 nM, 14400 nM and over 50000 nM.
Consider `CCOC(=O)C1=C(Nc2cc(Cl)cc(Cl)c2)SCC1=O`, for which the IC50 in assay [1] was over 50000 nM; in the assay on Plasmodium falciparum [2] it was 6000 nM; in the assay with Plasmodium falciparum [3] it was 4030 nM; in assay [4], 1190 nM.
In the case of `CCOC(=O)C1=C(Nc2ccc(C)c(C)c2)SCC1=O`, the IC50 in assay [1] was over 50000 nM; in the assay on Plasmodium falciparum [2], 1320 nM; in the assay on Plasmodium falciparum [3], 1990 nM; in assay [4] it was 256 nM.
In the case of `CCOC(=O)C1=C(Nc2ccc(C)c(F)c2)SCC1=O`, the IC50 in assay [1] is over 50000 nM; in the assay with Plasmodium falciparum [2], 3730 nM; with Plasmodium falciparum [3], 5050 nM; in assay [4], 536 nM.
On the same counts, the results for `CCOC(=O)C1=C(Nc2ccc(Br)cc2C)SCC1=O` are over 50000 nM, over 20000 nM, over 20000 nM and over 50000 nM.
On the same counts, the results for `CCOC(=O)C1=C(Nc2ccc3c(c2)CCCC3)SCC1=O` are 12000 nM, 315 nM, 169 nM and 92 nM.
On the same counts, the results for `CCOC(=O)C1=C(Nc2cnc3ccccc3c2)SCC1=O` are over 50000 nM, 290 nM, 253 nM and 351 nM.
Consider `CCOC(=O)C1=C(Nc2ccc3c(c2)CCC3)SCC1=O`, for which the IC50 was over 50000 nM in assay [1], 1570 nM with Plasmodium falciparum [2], 1400 nM with Plasmodium falciparum [3] and 851 nM in assay [4].
Taken in the same sequence, the figures for `CCOC(=O)C1=C(Nc2ccc3cc4ccccc4cc3c2)SCC1=O` were over 50000 nM, 1130 nM, 688 nM and 197 nM.
Turning to `CCOC(=O)C1=C(Nc2ccc3c(c2)c2ccccc2n3CC)SCC1=O`, the IC50 in assay [1] was over 50000 nM; with Plasmodium falciparum [2], 1510 nM; with Plasmodium falciparum [3] it was 1230 nM; in assay [4], 392 nM.
In the case of `Cc1ccc(NC2=CC(=O)CS2)cc1C`, the IC50 is over 50000 nM in assay [1], 2500 nM in the assay with Plasmodium falciparum [2], 1910 nM in the assay on Plasmodium falciparum [3] and 11400 nM in assay [4].
Consider `Cc1ccc(NC2=C(C(=O)O)C(=O)CS2)cc1C`, for which the IC50 in assay [1] was over 50000 nM; in the assay with Plasmodium falciparum [2] it was over 20000 nM; in the assay with Plasmodium falciparum [3], over 20000 nM; in assay [4], over 50000 nM.
As for `O=C(O)C1=C(Nc2ccc3ccccc3c2)SCC1=O`, the IC50 in assay [1] was over 50000 nM; in the assay on Plasmodium falciparum [2], 1050 nM; in the assay on Plasmodium falciparum [3], 1860 nM; in assay [4], 1240 nM.
On the same counts, the results for `COC(=O)C1=C(Nc2ccc(C)c(C)c2)SCC1=O` are over 50000 nM, 1270 nM, 1020 nM and 1490 nM.
Taken in the same sequence, the figures for `CCCOC(=O)C1=C(Nc2ccc(C)c(C)c2)SCC1=O` were 11600 nM, 1690 nM, 2110 nM and 4030 nM.
